Data: patent US20080207624A1, “Therapeutic Agent for Bh4-Responsive Hyperphenylalaninemia” (priority 2004, published 2008)
Counter-ions that a name gives are not always drawn.

What was measured:
[1] = Example 7: stability of sapropterin hydrochloride blended 200:1 with coloring agents; format: physicochemical
Procedure: Sapropterin hydrochloride was mixed at a 200:1 ratio with different coloring agents. 0.2 g of each mixture was placed in a glass vial, which was then sealed with a metal cap and was stored at 40° C. and 75% RH for 4 weeks. Subsequently, the mixtures were evaluated for stability (i.e., change in appearance, amount of remaining active ingredient).

[2] = Example 2: stability of sapropterin hydrochloride mixed 1:5 with sweeteners, uncapped vial 40° C., 75% RH; format: physicochemical; conditions: 8 weeks
Procedure: Sapropterin hydrochloride was mixed at a 1:5 ratio with each of the three sweeteners described above. 2 g of the mixture was placed in a glass vial and the vial was left uncapped at 40° C., 75% RH, to evaluate the stability of the preparation and sapropterin hydrochloride. […] The preparations using sucrose and fructose even underwent deliquescence. The remaining sapropterin hydrochloride was quantified by liquid chromatography that can differentiate sapropterin hydrochloride from its analogues. The area of the peak for sapropterin hydrochloride was determined and was used to calculate the remaining sapropterin hydrochloride (The same procedure was followed in other examples).

% amount remained ([1]; After 4-week storage (40° C./75% RH), sealed vial): 99.6% | Initial appearance ([1]; before storage): White | % amount of remaining sapropterin hydrochloride after storage [2]: 98.7% | Appearance after storage [2]: Yellowish white
Compound: C[C@H](O)[C@H](O)[C@H]1CNc2nc(N)[nH]c(=O)c2N1 [None, sapropterin hydrochloride]
